Reference: US20170234881A1, “METHODS OF DIAGNOSING AND TREATING CANCER” (INSERM ( INSTITUT NATIONAL DE LA SANTÉ ET DE LA RECHERCHE …, priority 2014, published 2017)

How the values were obtained:
[1] = tested on: E0771 cells; assay: Growth of E0771 tumors implanted s.c. into mice; assay type: in vivo; conditions: mouse E0771 tumors, OCDO 50 μg/kg s.c.
Procedure: (§1) FIG. 2. OCDO is a tumor promoter in vitro and in vivo and its inhibition contributes to the anti-tumor effects of Tam and DDA. (A, B) Histograms representing the effect of OCDO or 17β-estrogen (E2) on MCF7 (A) and TS/A (B) cell proliferation after 24 h treatment using a colorimetric immunoassay measuring BrDU incorporation in DNA (C, D) Histogram representing the effect of OCDO on MCF7 (C) and TS/A (D) cell invasion. Data are the mean of three separate experiments (±s.e.m), *P<0.05, **P<0.01, ***P<0.001 (Student's t-test). (E, F) Mice were implanted s.c. with MCF7 (E) or TS/A (F) cells and animals (8 per group) were treated s.c. every day starting on the day of implantation with either the solvent vehicle or OCDO (16 μg/kg for MCF7 or 50 μg/kg for TS/A). Animals were monitored for tumour growth twice a week. […] (G) Mean (±s.e.m) of Ki67 positive cell number determined from IHC staining of MCF7 tumor sections from (E), n=8, *P<0.05 (Student's t-test) using HistoQuant, Pannoramic Viewer (3DHistech). […]
(§2) Exponentially growing MCF7, ShMCF7, E0771, MDA-MB231, MDA-MB468 and TS/A cells were collected, washed twice in PBS and resuspended in PBS. […] Animals were examined daily, and body weights were measured twice per week. In all the experiments, the tumor volume was determined by direct measurement with a caliper and was calculated using the formula (width^2×length)/2. […]

[2] = tested on: ShC tumors; assay: Ki67 staining of shC MCF7 tumors xenografted in mice; assay type: in vivo; conditions: OCDO treatment
Procedure: (§3) FIG. 7. Knock-down of 11βHSD2 decreases cell proliferation, invasion and survival in MCF7 cells as well as tumor growth and OCDO reverses these effects. shC or shHSD2 MCF7 cells were analyzed as followed: (A) The proliferation of sh-C or shHSD2 cells treated or not with OCDO 5 μM 24 h was measured using quantification of DNA BrDU incorporation as described in FIG. 2A. (B) The proliferation of sh-C or shHSD2 cells treated or not with increasing concentration of cortisone for 24 h was measured as in (A). (C) The invasiveness of sh-C or shHSD2 cells treated or not with OCDO 5 μM for 72 h was assayed using matrigel-coated filters. (D) the formation of colony by sh-C or shHSD2 cells treated or not with OCDO 1 μM was quantified as described in FIG. 6F. […] Animals were monitored for tumor growth twice a week. […] (F) Mean (±s.e.m) of Ki67 positive cell number determined from IHC staining of shC or shHSD2 MCF7 tumor sections from (E), n=8, *P<0.05 (Student's t-test) using HistoQuant, Pannoramic Viewer (3DHistech).
as §2

[3] = tested on: MDA-MB231 cells; assay: Growth of MDA-MB231 tumors implanted s.c. into mice; assay type: in vivo; conditions: human MDA-MB231 tumors, OCDO 16 μg/kg s.c.
Procedure: as §1, §2

[4] = tested on: TS/A tumors; assay: Growth of TS/A tumors implanted s.c. into mice; assay type: in vivo
Procedure: FIG. 2. OCDO is a tumor promoter in vitro and in vivo and its inhibition contributes to the anti-tumor effects of Tam and DDA. (A, B) Histograms representing the effect of OCDO or 17β-estrogen (E2) on MCF7 (A) and TS/A (B) cell proliferation after 24 h treatment using a colorimetric immunoassay measuring BrDU incorporation in DNA (C, D) Histogram representing the effect of OCDO on MCF7 (C) and TS/A (D) cell invasion. Data are the mean of three separate experiments (±s.e.m), *P<0.05, **P<0.01, ***P<0.001 (Student's t-test). (E, F) Mice were implanted s.c. with MCF7 (E) or TS/A (F) cells and animals (8 per group) were treated s.c. every day starting on the day of implantation with either the solvent vehicle or OCDO (16 μg/kg for MCF7 or 50 μg/kg for TS/A). Animals were monitored for tumour growth twice a week. The data are representative of three independent experiments. The mean tumor volume±s.e.m is shown, *P<0.05, **P<0.01, ***P<0.001 (analysis of variance (ANOVA), Dunnett's post test). (G) Mean (±s.e.m) of Ki67 positive cell number determined from IHC staining of MCF7 tumor sections from (E), n=8, *P<0.05 (Student's t-test) using HistoQuant, Pannoramic Viewer (3DHistech). (H) Representative Ki67 staining of TS/A tumor sections from (F) showing increased staining in OCDO-treated tumor compared with control-treated tumor. (I, J, K). Murine E0771(I), or human MDA-MB231 (J) or MDA-MB468 (K) cells implanted s.c. into mice (8 per group) and animals were treated s.c. with either the solvent vehicle or OCDO (16 μg/kg for MDA-MB-231 and MDA-MB-468 or 50 μg/kg for E0771). The data are representative of two independent experiments. Statistical analysis was performed as in E and F. (L) Mice were implanted s.c. with TS/A cells and animals (8 per group) were treated s.c. every day with either the solvent vehicle, OCDO (50 μg/kg), Tam (56 mg/kg), DDA (20 mg/kg) or the combination of Tam (56 mg/kg) +OCDO (50 μg/kg) or DDA (20 mg/kg)+OCDO (50 μg/kg). The data are representative of three independent experiments. Statistical analysis was performed as in E and F.
Exponentially growing MCF7, ShMCF7, E0771, MDA-MB231, MDA-MB468 and TS/A cells were collected, washed twice in PBS and resuspended in PBS. TS/A and E9771 tumours were prepared by subcutaneous transplantation of 35×10^3 cells or 3×10^5 cells respectively in 100 μl PBS into the flank of BALB/c or C57B16 mice. For other tumors, 5 to 10×10^6 cells in 200 μl PBS/matrigel (1/1) were injected into the flank of NMRI nude mice. Animals were treated as indicated in the legends. Animals were examined daily, and body weights were measured twice per week. In all the experiments, the tumor volume was determined by direct measurement with a caliper and was calculated using the formula (width^2×length)/2. Tumors were either frozen in liquid nitrogen or fixed in 10% neutral-buffered formalin and embedded in paraffin for immunohistochemical analysis. Paraffin sections were stained with haematoxylin and eosin for histomorphological analyses. Immunohistochemical staining was done on paraffin-embedded tissue sections, using a specific Ki67 antibody (Dako).
We then assayed the anti-growth effect of Tam or DDA against TS/A tumors in the absence and presence of OCDO. As above, TS/A tumors implanted into immunocompetent mice were treated s.c. every day either with either the solvent vehicle (control), OCDO (50 μg/kg), Tam (56 mg/kg), DDA (20 mg/kg) or the combination of Tam (56 mg/kg)+OCDO (50 μg/kg) or DDA (20 mg/kg) +OCDO (50 μg/kg).

[5] = tested on: sh11HSD2 tumors; assay: Growth of sh11HSD2 MCF7 tumors xenografted in mice; assay type: in vivo
Procedure: as §3, §2

[6] = tested on: shHSD2 MCF7 cells; assay: Clonogenic assay of shHSD2 MCF7 cells; assay type: cell-based, human; conditions: OCDO 1 μM
Procedure: as §3
Cells, MCF7-sh11bHSD2 (5×10^3), MCF7-shC (5×10^3) or TSA (3×10^3) were seeded in duplicate in […] diameter dish. […] At day 10, colonies were fixed with 3.7% PFA, stained with an aqueous crystal violet solution (0.05%) and the number of colonies was counted.

## CC(C)CCC[C@@H](C)[C@H]1CC[C@H]2[C@@H]3CC(=O)[C@@]4(O)C[C@@H](O)CC[C@]4(C)[C@H]3CC[C@]12C [OCDO, 6-oxo-cholestan-3β,5α-diol]
[1]
  tumor growth: stimulates the growth
[2]
  cell proliferation by KI67 staining of tumors: increased
[3]
  tumor growth: stimulates the growth
[4]; TS/A tumors in immunocompetent mice, OCDO 50 μg/kg s.c. every day
  tumor growth compared with the control group: significantly increased
[4]; TS/A tumors, IHC
  proliferative marker Ki67 in tumors compared with control-treated tumors: increased
[4]; after 13 days of treatment, OCDO 50 μg/kg s.c. every day, p<0.01
  enhancement of TS/A tumor growth compared with the control group: 140%
[5]; immunodeficient mice, subcutaneous OCDO 15 μg/kg, 5 days/week
  effect on growth of sh11HSD2 tumors: reversed the growth inhibition of sh11HSD2 tumors to a level similar to the growth of shC tumors
[5]; sh11HSD2 MCF7 tumors, OCDO treatment
  cell proliferation by KI67 staining of tumors: reversed the growth inhibition of sh11HSD2 tumors
[6]
  effect on the inhibition of cell survival (colony formation) mediated by 11βHSD2 knock-down: reversed the inhibition
